In PubChem BioAssay AID330 (DTP/NCI, 2004):
Values joined by “and” are separate entries in the source; they are usually repeats but may differ in a detail not shown here. Identical values can stand only once. Toxic doses and inconclusive results are not listed. How the source made its calls: active means survival T/C of 150% or more; inactive means T/C below 125% in these data.

System: P388 leukemia ip, CD2F1 mice, survival T/C
Test: NCI In Vivo Anticancer Drug Screen. Data for tumor model P388 Leukemia (intraperitoneal) in CD2F1 (CDF1) mice
Conditions: endpoint: median survival time, higher = longer survival
In short: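 Mice carrying the transplanted tumor received test compound or vehicle. Survival was recorded in each group, and the value is the treated-group measurement divided by that of the vehicle-treated control group.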

[1] = dose: 100.0 mg/kg/injection, schedule: Q04DX003 (ip), vehicle: saline with Tween-80
[2] = dose: 200.0 mg/kg/injection, schedule: Q04DX003 (ip), vehicle: saline with Tween-80
[3] = dose: 400.0 mg/kg/injection, schedule: Q04DX003 (ip), vehicle: saline with Tween-80
[4] = dose: 50.0 mg/kg/injection, schedule: Q01DX009 (ip), vehicle: saline
[5] = dose: 100.0 mg/kg/injection, schedule: Q01DX009 (ip), vehicle: saline
[6] = dose: 25.0 mg/kg/injection, schedule: Q01DX009 (ip), vehicle: saline with Tween-80
[7] = dose: 50.0 mg/kg/injection, schedule: Q01DX009 (ip), vehicle: saline with Tween-80
[8] = dose: 100.0 mg/kg/injection, schedule: Q01DX009 (ip), vehicle: saline with Tween-80
[9] = dose: 200.0 mg/kg/injection, schedule: Q01DX009 (ip), vehicle: saline with Tween-80
[10] = dose: 50.0 mg/kg/injection, schedule: Q01DX009 (ip), vehicle: Klucel (hydroxypropylcellulose) (HPC)
[11] = dose: 100.0 mg/kg/injection, schedule: Q01DX009 (ip), vehicle: Klucel (hydroxypropylcellulose) (HPC)
[12] = dose: 200.0 mg/kg/injection, schedule: Q01DX009 (ip), vehicle: Klucel (hydroxypropylcellulose) (HPC)
[13] = dose: 60.0 mg/kg/injection, schedule: Q01DX005 (ip), vehicle: Klucel (hydroxypropylcellulose) (HPC)
[14] = dose: 120.0 mg/kg/injection, schedule: Q01DX005 (ip), vehicle: Klucel (hydroxypropylcellulose) (HPC)
[15] = dose: 240.0 mg/kg/injection, schedule: Q01DX005 (ip), vehicle: Klucel (hydroxypropylcellulose) (HPC)
[16] = dose: 12.5 mg/kg/injection, schedule: Q01DX009 (ip), vehicle: saline with Tween-80
[17] = dose: 60.0 mg/kg/injection, schedule: Q01DX005 (ip), vehicle: saline with Tween-80
[18] = dose: 120.0 mg/kg/injection, schedule: Q01DX005 (ip), vehicle: saline with Tween-80
[19] = dose: 240.0 mg/kg/injection, schedule: Q01DX005 (ip), vehicle: saline with Tween-80
[20] = dose: 50.0 mg/kg/injection, schedule: Q01DX005 (ip), vehicle: saline with Tween-80
[21] = dose: 100.0 mg/kg/injection, schedule: Q01DX005 (ip), vehicle: saline with Tween-80
[22] = dose: 200.0 mg/kg/injection, schedule: Q01DX005 (ip), vehicle: saline with Tween-80
[23] = dose: 100.0 mg/kg/injection, schedule: Q01DX009 (ip), vehicle: other
[24] = dose: 200.0 mg/kg/injection, schedule: Q01DX009 (ip), vehicle: other

Measured: T/C

COC(=O)[C@]12CCC(C)(C)C[C@H]1C1=CC[C@@H]3[C@@]4(C)C[C@H](O)[C@H](OC5OC(CO)C(O)C(O)C5O)C(CO)(CO)[C@@H]4CC[C@@]3(C)[C@]1(C)C[C@H]2O (some centres not stated)
inactive: dose: 2.5 mg/kg/injection, schedule: Q01DX005 (ip), vehicle: Klucel (hydroxypropylcellulose) (HPC) 94 % of control | dose: 5.0 mg/kg/injection, schedule: Q01DX005 (ip), vehicle: Klucel (hydroxypropylcellulose) (HPC) 95 % of control | dose: 10.0 mg/kg/injection, schedule: Q01DX005 (ip), vehicle: Klucel (hydroxypropylcellulose) (HPC) 100 % of control | dose: 20.0 mg/kg/injection, schedule: Q01DX005 (ip), vehicle: Klucel (hydroxypropylcellulose) (HPC) 101 % of control

N#CCCN(CCc1ccccn1)C(=S)Nc1cccc(C(F)(F)F)c1
inactive: dose: 50.0 mg/kg/injection, schedule: Q04DX003 (ip), vehicle: saline with Tween-80 99 % of control | [1] 101 % of control | [2] 100 % of control | [3] 101 % of control

CCOC(=O)NCP(Cl)(CNC(=O)OCC)(CNC(=O)OCC)CNC(=O)OCC
inactive: [4] 99 % of control | [5] 86 % of control

COc1cc2ccnc(/C=N\NC(N)=S)c2cc1OC
inactive: [6] 98 % of control | [7] 101 % of control | [8] 107 % of control | [9] 118 % of control

CN(C)N1C(=O)C(c2ccccc2)(c2ccccc2)CSC1=S
inactive: [10] 108 % of control | [11] 100 % of control | [12] 101 % of control

CN(CCCCCl)C(=O)Oc1ccccc1
inactive: [10] 102 % of control | [11] 106 % of control | [12] 99 % of control

Cc1nc2cncnc2n(CCN2CCOCC2)c1=O
inactive: [13] 98 % of control | [14] 95 % of control | [15] 96 % of control

COc1ccc(OC)c(CC(C)N)c1 (configuration not stated)
inactive: dose: 60.0 mg/kg/injection, schedule: Q01DX005 (ip), vehicle: saline 98 % of control | dose: 120.0 mg/kg/injection, schedule: Q01DX005 (ip), vehicle: saline 93 % of control

O=[Se]([O][Sn]([O][Se](=O)c1ccccc1)([O][Se](=O)c1ccccc1)[c]1ccccc1)c1ccccc1 (configuration not stated)
inactive: [6] 104 % of control and 96 % of control | [7] 100 % of control and 103 % of control and 118 % of control | [8] 111 % of control and 121 % of control and 96 % of control

CC(C)(C)N=C(CCN1CCCCC1)Nc1ccc(Cl)cc1
inactive: [7] 113 % of control | [8] 112 % of control | [9] 111 % of control

C=C1CCC2C1C1C(C(C)C)CCC21C (configuration not stated)
inactive: [16] 92 % of control | [6] 96 % of control | [7] 93 % of control

COc1cc2c3c(c1OC)C(=O)C[C@@H]1CCCN(CC2)[C@H]31
inactive: dose: 12.5 mg/kg/injection, schedule: Q01DX005 (ip), vehicle: Klucel (hydroxypropylcellulose) (HPC) 99 % of control | dose: 25.0 mg/kg/injection, schedule: Q01DX005 (ip), vehicle: Klucel (hydroxypropylcellulose) (HPC) 98 % of control

CCOC(=O)CCc1c(-c2ccccc2)[nH]c2ccccc12
inactive: [17] 106 % of control | [18] 107 % of control | [19] 101 % of control

COc1ccc(I)c(C=NC2CCCCC2)c1C
inactive: dose: 50.0 mg/kg/injection, schedule: Q01DX005 (ip), vehicle: distilled water + Tween-80 + alcohol 98 % of control | dose: 100.0 mg/kg/injection, schedule: Q01DX005 (ip), vehicle: distilled water + Tween-80 + alcohol 97 % of control | dose: 200.0 mg/kg/injection, schedule: Q01DX005 (ip), vehicle: distilled water + Tween-80 + alcohol 98 % of control

O=C1CCC(c2n[nH]c(=S)n2-c2ccccc2)N1Cc1ccccc1 (configuration not stated)
inactive: [17] 101 % of control | [18] 94 % of control | [19] 90 % of control

C1CCN(CN2CCCCC2)CC1
inactive: [4] 104 % of control | [5] 108 % of control

COc1ccc(Cc2c(O)ccc3ccccc23)cc1
inactive: [20] 104 % of control | [21] 104 % of control | [22] 111 % of control

COC(=O)C(Cc1c[nH]c2ccccc12)NC(=O)C(Cc1cnc[nH]1)N(C(=O)OCc1ccccc1)C(=O)OCc1ccccc1 (configuration not stated)
inactive: [20] 100 % of control | [21] 89 % of control | [22] 98 % of control

O=C1CC(C2OCOC3COCOC32)CC(=O)N1 (configuration not stated)
inactive: [13] 111 % of control | [14] 109 % of control | [15] 100 % of control

O=c1ccc2cc3c(c(O)c2o1)OC=CC3
inactive: [10] 98 % of control | [11] 94 % of control

O=c1[nH]c2nc(SCc3ccccc3)n(Cc3ccccc3)c2c(=O)n1OS(=O)(=O)c1ccccc1
inactive: [17] 98 % of control | [18] 90 % of control | [19] 90 % of control

COc1ccc2ccc3c4c(c(=O)[nH]c3c2n1)CCC4
inactive: dose: 100.0 mg/kg/injection, schedule: Q04DX003 (ip), vehicle: saline 101 % of control | dose: 200.0 mg/kg/injection, schedule: Q04DX003 (ip), vehicle: saline 92 % of control | dose: 400.0 mg/kg/injection, schedule: Q04DX003 (ip), vehicle: saline 105 % of control

CCOC(=O)c1ccc(NC(=O)Nc2nc3cc(C)c(C)cc3s2)cc1
inactive: [7] 99 % of control | [8] 95 % of control | [9] 93 % of control

Clc1cccc(Cl)c1CSc1nc2ccccc2n2cccc12
inactive: [10] 102 % of control | [11] 105 % of control | [12] 105 % of control

CCCCN(C)/N=N/c1[nH]ncc1C(=O)OCC
inactive: [23] 120 % of control | [24] 116 % of control

CSC(=NNC(N)=O)SC
inactive: [1] 100 % of control | [2] 102 % of control | [3] 102 % of control

CN1CCN(c2ccccc2N)CC1
inactive: dose: 5.0 mg/kg/injection, schedule: Q01DX009 (ip), vehicle: saline with Tween-80 104 % of control | dose: 10.0 mg/kg/injection, schedule: Q01DX009 (ip), vehicle: saline with Tween-80 100 % of control | dose: 20.0 mg/kg/injection, schedule: Q01DX009 (ip), vehicle: saline with Tween-80 95 % of control

O=c1cc([N+](=O)[O-])c2c([nH]1)CCC2
inactive: [20] 97 % of control | [21] 94 % of control | [22] 90 % of control

O=C(NC(CCSSCCC(NC(=O)OCc1ccccc1)C(=O)OCc1ccccc1)C(=O)OCc1ccccc1)OCc1ccccc1 (configuration not stated)
inactive: dose: 12.5 mg/kg/injection, schedule: Q01DX009 (ip), vehicle: other 91 % of control | dose: 25.0 mg/kg/injection, schedule: Q01DX009 (ip), vehicle: other 98 % of control | dose: 50.0 mg/kg/injection, schedule: Q01DX009 (ip), vehicle: other 94 % of control | [23] 98 % of control | [24] 100 % of control

Nc1cc2c(c[n+](CCC[n+]3cc4c5ccccc5c(N)cc4c4ccccc43)c3ccccc23)c2ccccc12
inactive: dose: 3.13 mg/kg/injection, schedule: Q04DX003 (ip), vehicle: other 94 % of control | dose: 6.25 mg/kg/injection, schedule: Q04DX003 (ip), vehicle: other 102 % of control | dose: 12.5 mg/kg/injection, schedule: Q04DX003 (ip), vehicle: other 93 % of control | dose: 25.0 mg/kg/injection, schedule: Q04DX003 (ip), vehicle: other 92 % of control | dose: 50.0 mg/kg/injection, schedule: Q04DX003 (ip), vehicle: other 93 % of control | dose: 100.0 mg/kg/injection, schedule: Q04DX003 (ip), vehicle: other 86 % of control

Nc1ccc(S(N)(=O)=O)cc1
inactive: [16] 105 % of control and 112 % of control | dose: 150.0 mg/kg/injection, schedule: Q01DX009 (ip), vehicle: saline with Tween-80 108 % of control and 97 % of control | [9] 101 % of control and 89 % of control | dose: 400.0 mg/kg/injection, schedule: Q01DX009 (ip), vehicle: saline with Tween-80 98 % of control and 100 % of control

CC(=O)NCC(C)c1ccccc1 (configuration not stated)
inactive: [6] 102 % of control
